Source: ChEMBL document CHEMBL1201862, “PubChem BioAssay data set” (2004)
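Grown in 96-well plates, cells were treated for 48 hours with each compound at five concentrations. Insufficient inhibition: endpoint recorded as highest concentration tested. At the GI50, growth is halved.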 Calls of active or inactive are those of the source. Cut-off read from the data, not from the text of the source: active = GI50 up to about 1.1 µM and inactive = higher.

Key:
Assay in all cases: inhibition of tumour cell growth, NCI panel, 48 h
[1] = system: SF-268
[2] = system: MCF7
[3] = system: UACC-257
[4] = system: COLO 205
[5] = system: RXF 393
[6] = system: SF-539
[7] = system: HCT-116
[8] = system: CCRF-CEM
[9] = system: RPMI-8226
[10] = system: A498
[11] = system: Malme-3M
[12] = system: UO-31
[13] = system: SK-MEL-2
[14] = system: NCI/ADR-RES
[15] = system: SW-620
[16] = system: HOP-92
[17] = system: NCI-H23
[18] = system: HCC 2998
[19] = system: PC-3
[20] = system: HL-60
[21] = system: SNB-19
[22] = system: MDA-MB-435
[23] = system: SK-OV-3
[24] = system: T47D
[25] = system: CAKI-1
[26] = system: ACHN
[27] = system: DU-145
[28] = system: NCI-H522
[29] = system: U-251
[30] = system: OVCAR-4
[31] = system: SF-295
[32] = system: UACC-62
[33] = system: SK-MEL-5
[34] = system: MDA-MB-231
[35] = system: IGROV-1
[36] = system: HT-29
[37] = system: KM12
[38] = system: OVCAR-3
[39] = system: OVCAR-5
[40] = system: MDA-N
[41] = system: LOX IMVI
[42] = system: EKVX
[43] = system: OVCAR-8
[44] = system: NCI-H226
[45] = system: A549
[46] = system: MOLT-4
[47] = system: M14
[48] = system: HCT-15
[49] = system: HOP-62
[50] = system: SN12C
[51] = system: SR
[52] = system: K562
[53] = system: BT-549
[54] = system: 786-0
[55] = system: SNB-75
[56] = system: Hs-578T
[57] = system: TK-10
[58] = system: SK-MEL-28
[59] = system: NCI-H460

Measured: GI50

c1ccc(COC[C@H]2C3OCC([C@H](OCc4ccccc4)[C@H]3OCc3ccccc3)N2Cc2ccccc2)cc1 (some centres undefined)
inactive: [1] > 54.3 µM | [2] > 56 µM | [3] 49 µM | [4] > 57 µM | [5] > 100 µM | [6] > 59 µM | [7] 23.5 µM | [8] 27.1 µM | [9] 15.8 µM | [10] 33.7 µM | [11] 27.9 µM | [12] > 46.1 µM | [13] > 49.2 µM | [14] > 47.8 µM | [15] > 57 µM | [16] > 57.1 µM | [17] 40.3 µM | [18] > 53 µM | [19] 20.2 µM | [20] 8.41 µM | [21] > 49.3 µM | [22] > 55.2 µM | [23] > 56.4 µM | [24] 13.6 µM | [25] > 53.7 µM | [26] > 56.2 µM | [27] > 48.2 µM | [28] 13.9 µM | [29] 26.2 µM | [30] 40 µM | [31] > 51.2 µM | [32] 29.7 µM | [33] 30.8 µM | [34] > 49.2 µM | [35] 43 µM | [36] 46.6 µM | [37] 25.3 µM | [38] 17.4 µM | [39] > 52.4 µM | [40] > 53.2 µM | [41] > 50.6 µM | [42] > 46.7 µM | [43] > 50 µM | [44] 17.7 µM | [45] > 54.2 µM | [46] 6.44 µM | [47] > 54 µM | [49] > 55.2 µM | [50] > 49 µM | [51] 26.8 µM | [52] 12.4 µM | [53] > 53.3 µM | [54] > 50.1 µM | [55] 21.1 µM | [56] > 49.1 µM | [57] > 52.6 µM | [58] > 53.2 µM | [59] > 56.4 µM
> 45.8 µM: [48]
